Data taken from the supplement of paper PMC11061612.

What was measured:
Assay in all cases: Bliss excess, mean over the matrix (fraction); higher = more synergy
[1] = system: DEL (T-Cell Non-Hodgkin's Lymphoma)
Summary of the method: (§1)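 After 24 hours at 37°C and 5% CO2 in 1536-well plates, cells in DMEM/F12 or RPMI plus 10% FBS received two-drug dose matrices for 72 hours. Viability came from CellTiter-Glo 2.0 luminescence and was scaled as inhibition, anchored at 0 by vehicle wells and at 1 by blank wells. Combination Emax is taken as the second-highest inhibition in the matrix, and Bliss excess as the observed combination effect less EA + EB − EA·EB, with EA and EB the single-agent effects.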

[2] = system: ME-1 (Acute Myeloid Leukemia)
Summary of the method: as §1

ES4 (Ewing's Sarcoma) = system: ES4 (Ewing's Sarcoma)
Summary of the method: as §1

[3] = system: CCRF-CEM (T-Lymphoblastic Leukemia)
Summary of the method: as §1

[4] = system: MDA-MB-361 (Breast Carcinoma)
Summary of the method: as §1

42-MG-BA (Glioblastoma) = system: 42-MG-BA (Glioblastoma)
Summary of the method: as §1

[5] = system: CaR-1 (Colorectal Carcinoma)
Summary of the method: as §1

AGS (Gastric Carcinoma) = system: AGS (Gastric Carcinoma)
Summary of the method: as §1

[6] = system: SNU-5 (Gastric Carcinoma)
Summary of the method: as §1

[7] = system: LU-135 (Small Cell Lung Carcinoma)
Summary of the method: as §1

[8] = system: TE-15 (Esophageal Squamous Cell Carcinoma)
Summary of the method: as §1

[9] = system: LB831-BLC (Bladder Carcinoma)
Summary of the method: as §1

[10] = system: MFE-296 (Endometrial Carcinoma)
Summary of the method: as §1

[11] = system: NCI-H2085 (Non-Small Cell Lung Carcinoma)
Summary of the method: as §1

[12] = system: SK-ES-1 (Ewing's Sarcoma)
Summary of the method: as §1

[13] = system: TE-9 (Esophageal Squamous Cell Carcinoma)
Summary of the method: as §1

[14] = system: RC-K8 (B-Cell Non-Hodgkin's Lymphoma)
Summary of the method: as §1

T98G (Glioblastoma) = system: T98G (Glioblastoma)
Summary of the method: as §1

[15] = system: Ramos-2G6-4C10 (Burkitt's Lymphoma)
Summary of the method: as §1

[16] = system: UM-UC-3 (Bladder Carcinoma)
Summary of the method: as §1

| SMILES | Bliss excess [1] | Bliss excess [2] | Bliss excess (ES4 (Ewing's Sarcoma)) | Bliss excess [3] | Bliss excess [4] | Bliss excess (42-MG-BA (Glioblastoma)) | Bliss excess [5] | Bliss excess (AGS (Gastric Carcinoma)) | Bliss excess [6] | Bliss excess [7] | Bliss excess [8] | Bliss excess [9] | Bliss excess [10] | Bliss excess [11] | Bliss excess [12] | Bliss excess [13] | Bliss excess [14] | Bliss excess (T98G (Glioblastoma)) | Bliss excess [15] | Bliss excess [16] |
| --- | --- | --- | --- | --- | --- | --- | --- | --- | --- | --- | --- | --- | --- | --- | --- | --- | --- | --- | --- | --- |
| CC1(C)CCC(CN2CCN(c3ccc(C(=O)NS(=O)(=O)c4ccc(NCC5CCOCC5)c([N+](=O)[O-])c4)c(Oc4cnc5[nH]ccc5c4)c3)CC2)=C(c2ccc(Cl)cc2)C1 [Venetoclax] + C=CCn1c(=O)c2cnc(Nc3ccc(N4CCN(C)CC4)cc3)nc2n1-c1cccc(C(C)(C)O)n1 [AZD1775] (first compound max 1 µM, partner max 1 µM) | -0.027 | 0.0289 | -0.0268 | 0.0922 | 0.0331 | -0.0687 | -0.0159 | -0.0506 | -0.0649 | -0.0538 | -0.0737 | -0.0004 | -0.0391 | -0.063 | 0.0455 | 0.0674 | -0.0082 | 0.0648 | 0.127 | -0.0225 |
| CC1(C)CCC(CN2CCN(c3ccc(C(=O)NS(=O)(=O)c4ccc(NCC5CCOCC5)c([N+](=O)[O-])c4)c(Oc4cnc5[nH]ccc5c4)c3)CC2)=C(c2ccc(Cl)cc2)C1 [Venetoclax] + CCN(CCO)CCCOc1ccc2c(Nc3cc(CC(=O)Nc4cccc(F)c4)[nH]n3)ncnc2c1 [AZD2811] (first compound max 1 µM, 7x7, partner max 1 µM) | -0.0345 | -0.0118 | -0.029 | -0.0322 | 0.0884 | 0.0019 | -0.055 | 0.0196 | -0.0426 | -0.0099 | -0.0386 | -0.0073 | -0.013 | -0.0189 | 0.0156 | -0.0184 | 0.0214 | -0.0169 | 0.0321 | -0.0234 |
| CC1(C)CCC(CN2CCN(c3ccc(C(=O)NS(=O)(=O)c4ccc(NCC5CCOCC5)c([N+](=O)[O-])c4)c(Oc4cnc5[nH]ccc5c4)c3)CC2)=C(c2ccc(Cl)cc2)C1 [Venetoclax] + CN(C)CCCOc1ccc(-c2ccc3ncc4c(c3c2)n(C2CCOCC2)c(=O)n4C)cn1 [AZD0156] (first compound max 1 µM, 7x7, partner max 1 µM) | 0.0011 | -0.0045 | -0.0226 | 0.0436 | 0.0156 | 0.0057 | -0.0201 | -0.0191 | 0.0053 | -0.0012 | -0.0298 | -0.061 | 0.0003 | -0.0295 | 0.0502 | -0.0213 | 0.0282 | -0.0509 | 0.0676 | 0.0045 |
| CC1(C)CCC(CN2CCN(c3ccc(C(=O)NS(=O)(=O)c4ccc(NCC5CCOCC5)c([N+](=O)[O-])c4)c(Oc4cnc5[nH]ccc5c4)c3)CC2)=C(c2ccc(Cl)cc2)C1 [Venetoclax] + COc1cc(Nc2ncc3c(n2)-c2ccc(Cl)cc2C(c2c(F)cccc2OC)=NC3)ccc1C(=O)O [Alisertib] (first compound max 1 µM, 7x7, partner max 10 µM) | 0.0094 | 0.0669 | -0.0349 | -0.0493 | 0.147 | 0.0468 | 0.008 | 0.0353 | -0.0218 | -0.0236 | 0.0102 | -0.0354 | -0.0285 | 0.0491 | 0.097 | 0.0148 | 0.024 | -0.0205 | 0.0209 | 0.0184 |
| CC1(C)CCC(CN2CCN(c3ccc(C(=O)NS(=O)(=O)c4ccc(NCC5CCOCC5)c([N+](=O)[O-])c4)c(Oc4cnc5[nH]ccc5c4)c3)CC2)=C(c2ccc(Cl)cc2)C1 [Venetoclax] + C[C@@H]1COCCN1C2=NC(=NC(=C2)C3(CC3)[S@](=N)(=O)C)C4=C5C=CNC5=NC=C4 [AZD6738] (first compound max 1 µM, 7x7, partner max 10 µM) | 0.01 | 0.0345 | -0.0465 | 0.0224 | -0.0214 | -0.0057 | -0.0005 | -0.0423 | -0.0437 | 0.0538 | -0.0314 | 0.0045 | -0.0296 | 0.0309 | 0.0104 | -0.0019 | -0.0294 | -0.061 | -0.0389 | -0.0296 |
| CC1(C)CCC(CN2CCN(c3ccc(C(=O)NS(=O)(=O)c4ccc(NCC5CCOCC5)c([N+](=O)[O-])c4)c(Oc4cnc5[nH]ccc5c4)c3)CC2)=C(c2ccc(Cl)cc2)C1 [Venetoclax] + C[C@@H](Nc1cc(F)cc(F)c1)c1cc(C(=O)N(C)C)cc2c(=O)cc(N3CCOCC3)oc12 [AZD8186] (first compound max 1 µM, 7x7, partner max 3 µM) | 0.0055 | 0.0239 | -0.0554 | 0.012 | -0.0151 | -0.0591 | -0.0366 | -0.0458 | 0.0236 | 0.121 | -0.0307 | -0.0465 | -0.0248 | 0.0025 | 0.0802 | -0.0185 | 0.018 | -0.0064 | 0.0107 | -0.0164 |
| CC1(C)CCC(CN2CCN(c3ccc(C(=O)NS(=O)(=O)c4ccc(NCC5CCOCC5)c([N+](=O)[O-])c4)c(Oc4cnc5[nH]ccc5c4)c3)CC2)=C(c2ccc(Cl)cc2)C1 [Venetoclax] + Cc1cc2ncnn2cc1Nc1ncc2c(n1)n(C1CCOCC1)c(=O)n2C [AZD7648] (first compound max 1 µM, 7x7, partner max 10 µM) | 0.0365 | 0.0319 | -0.0452 | 0.044 | 0.0398 | -0.0013 | -0.048 | -0.0505 | -0.0063 | -0.087 | -0.0519 | -0.0497 | -0.0065 | -0.0535 | 0.0203 | -0.0175 | 0.0156 | -0.0693 | 0.0435 | -0.0325 |
| CC1(C)CCC(CN2CCN(c3ccc(C(=O)NS(=O)(=O)c4ccc(NCC5CCOCC5)c([N+](=O)[O-])c4)c(Oc4cnc5[nH]ccc5c4)c3)CC2)=C(c2ccc(Cl)cc2)C1 [Venetoclax] + Cn1cnc2c(F)c(Nc3ccc(Br)cc3Cl)c(C(=O)NOCCO)cc21 [Selumetinib] (first compound max 1 µM, 7x7, partner max 3 µM) | 0.0117 | 0.055 | -0.0412 | 0.0079 | -0.0299 | -0.0279 | -0.0511 | -0.0792 | -0.0192 | -0.0545 | -0.0268 | -0.0239 | -0.0297 | -0.0271 | 0.0234 | -0.027 | -0.0112 | -0.0186 | -0.0144 | -0.0445 |
